Results on three compounds are retold here after patent publication US20260144739A1, “A SKIN BRIGHTENING COMPOSITION” (Conopco, Inc., d/b/a UNILEVER, priority 2022, published 2026).

Data set [1] deals with Co-cultures of HaCat keratinocytes and primary human melanocytes. As to the kind of experiment: Melanin content assay (% melanin reduction) in keratinocyte + melanocyte co-cultures. In kind it is cell-based. The following applies: 72 hrs treatment; melanin (405 nm) corrected for cell numbers (MC/Calcein); vs DMSO control; actives in wt % as per example; fermented oil samples diluted 1:40. As for the experimental part:
Various samples containing actives were prepared and the % melanin reduction was measured. The protocol for measuring the melanin reduction is summarized below:
Co-cultures of HaCat keratinocytes and primary human melanocytes were mixed at 40,000 each (1:1 ratio) in 1 ml of a 1:1 mix of their respective culture medium and seeded as such per well, in 12 well plates. After 24 hrs, cultures were treated with various concentrations of the test materials shown in table 1 and left undisturbed for a further period of 72 hrs. Comparative vehicle control was also set up simultaneously. For melanin estimation at the end of the 72 hrs incubation, cell viability was first determined using the Calcein AM method. Briefly, spent media was removed and cells were washed once with 0.4 ml of 1×PBS/well. Fresh 1 μM calcein-AM in PBS buffer was added to each well, including control wells without cells. Plates were covered with aluminium foil and incubated for 30 mins at 37° C. in a CO2 incubator. Calcein fluorescence was measured (excitation at 490 nm and emission at 520 nm) in a TECAN M1000 plate reader. Culture wells were drained and lysed using 1N NaOH containing 10% DMSO and placed for 1 hour at 60° C. in a shaker incubator. 100 μl of the supernatant was transferred to a 384 well plate and melanin was measured in a TECAN plate reader (405 nm filter). […]

Data set [2] shares this test system. The data set is described as follows: Cell viability by the Calcein AM method in the co-cultures. In kind it is cell-based. The note with it: 4-HR at concentrations higher than 0.0002%, at the cellular level in invitro experiments. As for the experimental part: Co-cultures of HaCat keratinocytes and primary human melanocytes were mixed at 40,000 each (1:1 ratio) in 1 ml of a 1:1 mix of their respective culture medium and seeded as such per well, in 12 well plates. After 24 hrs, cultures were treated with various concentrations of the test materials shown in table 1 and left undisturbed for a further period of 72 hrs. Comparative vehicle control was also set up simultaneously. For melanin estimation at the end of the 72 hrs incubation, cell viability was first determined using the Calcein AM method. Briefly, spent media was removed and cells were washed once with 0.4 ml of 1×PBS/well. Fresh 1 μM calcein-AM in PBS buffer was added to each well, including control wells without cells. Plates were covered with aluminium foil and incubated for 30 mins at 37° C. in a CO2 incubator. Calcein fluorescence was measured (excitation at 490 nm and emission at 520 nm) in a TECAN M1000 plate reader. Culture wells were drained and lysed using 1N NaOH containing 10% DMSO and placed for 1 hour at 60° C. in a shaker incubator. 100 μl of the supernatant was transferred to a 384 well plate and melanin was measured in a TECAN plate reader (405 nm filter). Melanin content (MC) was expressed after correction for cell numbers (MC/Calcein) and represented as % melanin.

For `CCCCCCc1ccc(O)cc1O` [B], the “% melanin reduction” value in data set [1] is 23%.

On to `CCCCCCc1ccc(O)cc1O` [C], for which, in data set [1], the “% melanin reduction” value is on record as 3%.

For `CCCCCCc1ccc(O)cc1O` [Example 4-HR, 4-hexyl resorcinol], the cell viability entry in data set [2] is reported as “leads to cell viability problems”.
